≈ marks a conversion by molar mass, not a printed value. Where two headings read alike, the source gives them in different places.
Columns and labels:
Experiment in all cases: in vitro antibacterial activity, microtitration dilution method
Assay type in all cases: cell-based
Proteus rettgeri M 1771 = settings: Providencia rettgeri, M1771, read-out: minimal inhibitory concentration (MIC)
From the text: (§1) The compounds of the invention display antibacterial activity when tested by the microtitration dilution method as described in Heifetz, et al, Antimicr. Agents & Chemoth., 6, 124 (1974), which is incorporated herein by reference.
(§2) By use of the above reference method, the following minimum inhibitory concentration value (MICs in μg/ml) shown in Table I were obtained for representative compounds of the invention.

Escherichia coli Vogel = settings: read-out: minimal inhibitory concentration (MIC)
From the text: as §1, §2

[1] = system: Enterobacter cloacae MA 2646
From the text: as §1, §2

[2] = system: Pseudomonas aeruginosa UI-18
From the text: (§3) Agents & Chemoth., 6, 124 (1974), which is incorporated herein by reference.

[3] = system: Streptococcus faecalis MGH-2; settings: Enterococcus faecalis
From the text: as §3

[4] = system: Staphylococcus aureus UC-76
From the text: as §3

[5] = system: Klebsiella pneumoniae MGH-2
From the text: as §3

[6] = system: Staphylococcus aureus H 228
From the text: as §3

[7] = system: Streptococcus pyogenes C-203
From the text: as §3

[8] = system: Streptococcus pneumoniae SV-1
From the text: as §3

[9] = MA2646, in vitro, Enterobacter cloacae MA 2646, read-out: minimal inhibitory concentration (MIC)
[10] = UI18, in vitro, Pseudomonas aeruginosa UI-18, read-out: minimal inhibitory concentration (MIC)
[11] = MGH2, read-out: minimal inhibitory concentration (MIC)
[12] = UC76, in vitro, Staphylococcus aureus UC-76, read-out: minimal inhibitory concentration (MIC)
[13] = MGH2, in vitro, Klebsiella pneumoniae MGH-2, read-out: minimal inhibitory concentration (MIC)
[14] = Staphylococcus aureus, H228, read-out: minimal inhibitory concentration (MIC)
[15] = C203, in vitro, Streptococcus pyogenes C-203, read-out: minimal inhibitory concentration (MIC)
[16] = SV1, in vitro, Streptococcus pneumoniae SV-1, read-out: minimal inhibitory concentration (MIC)
[17] = MGH2, in vitro, Streptococcus faecalis MGH-2, read-out: minimal inhibitory concentration (MIC)
[18] = H228, in vitro, Staphylococcus aureus H 228, read-out: minimal inhibitory concentration (MIC)
[19] = Enterobacter cloacae, MA2646, read-out: minimal inhibitory concentration (MIC)
[20] = Pseudomonas aeruginosa, UI18, read-out: minimal inhibitory concentration (MIC)
[21] = Klebsiella pneumoniae, MGH2, read-out: minimal inhibitory concentration (MIC)
[22] = Staphylococcus aureus, UC76, read-out: minimal inhibitory concentration (MIC)

Structure (SMILES) | MIC (Proteus rettgeri M 1771) | MIC (Escherichia coli Vogel) | MIC [1, 9] | MIC [2, 10] | MIC [3, 11] | MIC [4, 12] | MIC [5, 13] | MIC [6, 14] | MIC [7, 15] | MIC [8, 16] | MIC [3, 17] | MIC [6, 18] | MIC ([7]; Streptococcus pyogenes, C203, read-out: minimal inhibitory concentration (MIC)) | MIC [1, 19] | MIC [2, 20] | MIC [5, 21] | MIC [4, 22] | MIC ([8]; Streptococcus pneumoniae, SV1, read-out: minimal inhibitory concentration (MIC))
CCn1cc(C(=O)O)c(=O)c2cc(F)c(N3CC4CCCC3CN4)c(F)c21 (stereo not drawn) [Example 1, 7-(6,8-Diazabicyclo[3.2.2]non-6-yl)-1-ethyl-6,8-difluoro-1,4-dihydro-4-oxo-3-quinolinecarboxylic acid] | 0.8 µg/mL (≈ 2.12 µM) | 0.4 µg/mL (≈ 1.06 µM) | 0.4 µg/mL (≈ 1.06 µM) | 3.1 µg/mL (≈ 8.21 µM) | 0.8 µg/mL (≈ 2.12 µM) | 0.05 µg/mL (≈ 0.132 µM) | 0.8 µg/mL (≈ 2.12 µM) | 0.2 µg/mL (≈ 0.53 µM) | 1.6 µg/mL (≈ 4.24 µM) | 0.8 µg/mL (≈ 2.12 µM) | – | – | – | – | – | – | – | –
O=C(O)c1cn(C2CC2)c2c(F)c(N3CC4CCCC3CN4)c(F)cc2c1=O (stereo not drawn) [Example 2, 1-Cyclopropyl-7-(6,8-diazabicyclo[3.2.2]non-6-yl)-6,8-difluoro-1,4-dihydro-4-oxo-3-quinolinecarboxylic acid] | 0.4 µg/mL (≈ 1.03 µM) | 0.4 µg/mL (≈ 1.03 µM) | 0.1 µg/mL (≈ 0.257 µM) | 0.8 µg/mL (≈ 2.05 µM) | – | 0.05 µg/mL (≈ 0.128 µM) | 0.2 µg/mL (≈ 0.514 µM) | – | – | 0.2 µg/mL (≈ 0.514 µM) | 0.2 µg/mL (≈ 0.514 µM) | 0.05 µg/mL (≈ 0.128 µM) | 0.8 µg/mL (≈ 2.05 µM) | – | – | – | – | –
O=C(O)c1cn(C2CC2)c2nc(N3CC4CCCC3CN4)c(F)cc2c1=O (stereo not drawn) [Example 3, 1-cyclopropyl-7-(6,8-diazabicyclo[3.2.2]non-6-yl)-6-fluoro-1,4-dihydro-4-oxo-1,8-naphthyridine-3-carboxylic acid] | 0.4 µg/mL (≈ 1.07 µM) | 0.03 µg/mL (≈ 0.0806 µM) | – | – | – | 0.1 µg/mL (≈ 0.269 µM) | – | 0.2 µg/mL (≈ 0.537 µM) | 0.1 µg/mL (≈ 0.269 µM) | 0.05 µg/mL (≈ 0.134 µM) | 0.2 µg/mL (≈ 0.537 µM) | – | – | 0.05 µg/mL (≈ 0.134 µM) | 0.4 µg/mL (≈ 1.07 µM) | 0.1 µg/mL (≈ 0.269 µM) | – | –
CCn1cc(C(=O)O)c(=O)c2cc(F)c(N3CC4CCCC3CN4C)c(F)c21 (stereo not drawn) [Example 4, 1-Ethyl-6,8-difluoro-1,4-dihydro-7-(8-methyl-6,8-diazabicyclo[3.2.2]non-6-yl)-4-oxo-3-quinolinecarboxylic acid] | 6.3 µg/mL (≈ 16.1 µM) | 0.8 µg/mL (≈ 2.04 µM) | 1.6 µg/mL (≈ 4.09 µM) | 12.5 µg/mL (≈ 31.9 µM) | 0.8 µg/mL (≈ 2.04 µM) | 0.1 µg/mL (≈ 0.255 µM) | 1.6 µg/mL (≈ 4.09 µM) | 0.2 µg/mL (≈ 0.511 µM) | 1.6 µg/mL (≈ 4.09 µM) | 0.8 µg/mL (≈ 2.04 µM) | – | – | – | – | – | – | – | –
CCN[C@@H]1C[C@H]2CC[C@@H](C1)N2c1nc2c(cc1F)c(=O)c(C(=O)O)cn2C1CC1 [Example 5a, 1-cyclopropyl-7-[3-exo(ethylamino)-8-azabicyclo[3.2.1]oct-8-yl]-6-fluoro-1,4-dihydro-4-oxo-1,8-naphthyridine-3-carboxylic acid] | 3.1 µg/mL (≈ 7.74 µM) | 0.2 µg/mL (≈ 0.499 µM) | 0.8 µg/mL (≈ 2 µM) | 1.6 µg/mL (≈ 4 µM) | – | – | 0.4 µg/mL (≈ 0.999 µM) | 0.2 µg/mL (≈ 0.499 µM) | 0.4 µg/mL (≈ 0.999 µM) | 0.2 µg/mL (≈ 0.499 µM) | 0.4 µg/mL (≈ 0.999 µM) | – | – | – | – | – | 0.2 µg/mL (≈ 0.499 µM) | –
CCN[C@H]1C[C@H]2CC[C@@H](C1)N2c1nc2c(cc1F)c(=O)c(C(=O)O)cn2C1CC1 [Example 5b, 1-Cyclopropyl-7-[3-endo(ethylamino)-8-azabicyclo[3.2.1]oct-8-yl]-6-fluoro-1,4-dihydro-4-oxo-1,8-naphthyridine-3-carboxylic acid] | 3.1 µg/mL (≈ 7.74 µM) | 0.4 µg/mL (≈ 0.999 µM) | 0.8 µg/mL (≈ 2 µM) | 3.1 µg/mL (≈ 7.74 µM) | 0.8 µg/mL (≈ 2 µM) | 0.4 µg/mL (≈ 0.999 µM) | 0.8 µg/mL (≈ 2 µM) | – | 0.4 µg/mL (≈ 0.999 µM) | 0.4 µg/mL (≈ 0.999 µM) | – | 0.8 µg/mL (≈ 2 µM) | – | – | – | – | – | –
CCN[C@H]1C[C@H]2CC[C@@H](C1)N2c1c(F)cc2c(=O)c(C(=O)O)cn(C3CC3)c2c1F [Example 5c, 1-cyclopropyl-7-[3-endo(ethylamino)-8-azabicyclo[3.2.1]oct-8-yl]-6,8-difluoro-1,4-dihydro-4-oxo-3-quinolinecarboxylic acid] | 3.1 µg/mL (≈ 7.43 µM) | 0.4 µg/mL (≈ 0.958 µM) | 0.4 µg/mL (≈ 0.958 µM) | 3.1 µg/mL (≈ 7.43 µM) | 0.8 µg/mL (≈ 1.92 µM) | – | 0.8 µg/mL (≈ 1.92 µM) | – | 0.4 µg/mL (≈ 0.958 µM) | 0.4 µg/mL (≈ 0.958 µM) | – | 0.8 µg/mL (≈ 1.92 µM) | – | – | – | – | 0.2 µg/mL (≈ 0.479 µM) | –
CCN[C@@H]1C[C@H]2CC[C@@H](C1)N2c1c(F)cc2c(=O)c(C(=O)O)cn(C3CC3)c2c1F [Example 5d, 1-cyclopropyl-7-[3-exo(ethylamino)-8-azabicyclo[3.2.1]oct-8-yl]-6,8-difluoro-1,4-dihydro-4-oxo-3-quinolinecarboxylic acid] | 1.6 µg/mL (≈ 3.83 µM) | 0.2 µg/mL (≈ 0.479 µM) | 0.2 µg/mL (≈ 0.479 µM) | 3.1 µg/mL (≈ 7.43 µM) | – | 0.1 µg/mL (≈ 0.24 µM) | 0.4 µg/mL (≈ 0.958 µM) | 0.2 µg/mL (≈ 0.479 µM) | 0.1 µg/mL (≈ 0.24 µM) | 0.1 µg/mL (≈ 0.24 µM) | 0.2 µg/mL (≈ 0.479 µM) | – | – | – | – | – | – | –
CCN[C@@H]1C[C@H]2CC[C@@H](C1)N2c1cc2c(cc1F)c(=O)c(C(=O)O)cn2C1CC1 [Example 5e, 1-cyclopropyl-7-[3-exo(ethylamino)-8-azabicyclo[3.2.1]oct-8-yl]-6-fluoro-1,4-dihydro-4-oxo-3-quinolinecarboxylic acid] | 3.1 µg/mL (≈ 7.76 µM) | 0.4 µg/mL (≈ 1 µM) | 0.8 µg/mL (≈ 2 µM) | 3.1 µg/mL (≈ 7.76 µM) | – | – | 0.8 µg/mL (≈ 2 µM) | – | 0.4 µg/mL (≈ 1 µM) | 0.2 µg/mL (≈ 0.501 µM) | 0.4 µg/mL (≈ 1 µM) | 0.4 µg/mL (≈ 1 µM) | – | – | – | – | 0.2 µg/mL (≈ 0.501 µM) | –
CCN[C@H]1C[C@H]2CC[C@@H](C1)N2c1cc2c(cc1F)c(=O)c(C(=O)O)cn2C1CC1 [Example 5f, 1-cyclopropyl-7-[3-endo(ethylamino)-8-azabicyclo[3.2.1]oct-8-yl]-6-fluoro-1,4-dihydro-4-oxo-3-quinolinecarboxylic acid] | 12.5 µg/mL (≈ 31.3 µM) | 1.6 µg/mL (≈ 4.01 µM) | 1.6 µg/mL (≈ 4.01 µM) | 6.3 µg/mL (≈ 15.8 µM) | – | 0.8 µg/mL (≈ 2 µM) | 3.1 µg/mL (≈ 7.76 µM) | – | 1.6 µg/mL (≈ 4.01 µM) | – | 3.1 µg/mL (≈ 7.76 µM) | 3.1 µg/mL (≈ 7.76 µM) | – | – | – | – | – | 1.6 µg/mL (≈ 4.01 µM)
O=C(O)c1cn(C2CC2)c2cc(N3CC4CCCC3CN4)c(F)cc2c1=O (stereo not drawn) [Example 7, 1-Cyclopropyl-7-(6,8-diazabicyclo[3.2.2]non-6-yl)-6-fluoro-1,4-dihydro-4-oxo-3-quinolinecarboxylic acid] | 0.4 µg/mL (≈ 1.08 µM) | 0.05 µg/mL (≈ 0.135 µM) | – | – | – | 0.025 µg/mL (≈ 0.0673 µM) | – | – | 0.05 µg/mL (≈ 0.135 µM) | 0.05 µg/mL (≈ 0.135 µM) | 0.1 µg/mL (≈ 0.269 µM) | 0.1 µg/mL (≈ 0.269 µM) | – | 0.05 µg/mL (≈ 0.135 µM) | 0.4 µg/mL (≈ 1.08 µM) | 0.1 µg/mL (≈ 0.269 µM) | – | –
O=C(O)c1cn(C2CC2)c2c(Cl)c(N3CC4CCCC3CN4)c(F)cc2c1=O (stereo not drawn) [Example 8, 8-Chloro-1-cyclopropyl-7-(6,8-diazabicyclo[3.2.2]non-6-yl)-6-fluoro-1,4-dihydro-4-oxo-3-quinolinecarboxylic acid] | 0.4 µg/mL (≈ 0.986 µM) | 0.2 µg/mL (≈ 0.493 µM) | 0.2 µg/mL (≈ 0.493 µM) | 0.8 µg/mL (≈ 1.97 µM) | – | 0.05 µg/mL (≈ 0.123 µM) | 0.2 µg/mL (≈ 0.493 µM) | 0.2 µg/mL (≈ 0.493 µM) | 0.1 µg/mL (≈ 0.246 µM) | 0.1 µg/mL (≈ 0.246 µM) | 0.2 µg/mL (≈ 0.493 µM) | – | – | – | – | – | – | –

From patent US4962108A, “Antibacterial quinoline compounds” (Warner-Lambert Company, priority 1988, dated 1990)
